From US20060052435A1, “Selective dopamin d3 receptor agonists for the treatment of sexual dysfunction” (priority 2001, published 2006)

Tests used:
[1] = target: human dopamine D2 long receptor (Homo sapiens, UniProt P14416)
conscious rats = experiment: conscious rat models of copulatory behaviour; settings: in vivo
Description: All studies of sexual behaviour must be performed on adult rats (˜12 weeks of age/200 g weight). Sexual behaviour tests are performed under red light during the dark phase of the light/dark cycle starting at 2 h after lights off and videotaped for further analysis (observer presence can unfavourably alter sexual behaviour).
Males (N=8-10) are placed in a clear aquarium (or home cage) for at least 15 min acclimation period. An estrous female is introduced into the mating arena. The following information is recorded during the 45 min test: latency to begin mounting behaviour, latency to first intromission, latency to first ejaculation (calculated from first intromission), number of intromissions to ejaculation, number of mounts until ejaculation, and the number of ejaculations during the test period. Males are observed during a single 45 min test with an estrous WT female.
The rats are presented with a receptive female at […], i.e. every third day (having 2 clear days between presentations), until completing at least 6 days of baseline determination. By then, vigorous behaviour should be expected. Rats that display sluggish copulatory behaviour are used as a model of HSDD.
For all the sexual behaviour tests, the males are placed in an observation arena (50-60 cm diameter for rats). 3 to 4 minutes after placing the male in the arena, a receptive female (ovariectomised, bearing a 7 mm silastic implant of oestradiol benzoate gives the best results without complications) is introduced to the arena and the following parameters noted:
Mount Latency: time (in seconds) taken between introduction of female and first mount. A maximum time of 15 minutes (900 seconds) is allowed, and the test terminated if no mounts are recorded within that time. Mount latency is related to sexual drive/desire.
Intromission Latency: time (in seconds) taken between introduction of female and first intromission. A maximum time of 15 minutes (900 seconds) is allowed, and the test terminated if no intromissions are recorded within that time. Intromission latency is related to sexual drive/desire.
Copulatory effectsiveness:—no of intromissions/(no of mounts+intromissions). This acts as a measure of erectile function.
The test, in the rat, is carried out in a circular arena of 90 cm diameter surrounded by a 30 cm high wall (these dimensions would need to be adapted for mice). Two small cages with wire-mesh front (15×15 cm) are fixed into the wall such that the front of the cage is “flush” with the wall and the 2 cages are opposite each other. […] The difference in the percentage of time spent investigating male minus female is calculated, out of the total time spent investigating stimuli animals. […] Female rats would then be used intact and tested in late proestrous, as determined by vaginal smears. […]

New Zealand rabbits = experiment: male and female anaesthetised rabbit, pelvic nerve stimulation; assay type: in vivo
Description: 1.1.1 Male and Female Anaesthetised Rabbit Methodology
Male and female New Zealand rabbits (˜2.5 kg) were pre-medicated with a combination of Medetomidine (Domitor®) 0.5 ml/kg i.m., and Ketamine (Vetalar®) 0.25 ml/kg i.m. whilst maintaining oxygen intake via a face mask. The rabbits were tracheotomised using a Portex™ uncuffed endotracheal tube 3 ID., connected to ventilator and maintained at a ventilation rate of 30-40 breaths per minute, with an approximate tidal volume of 18-20 ml, and a maximum airway pressure of 10 cm H2O. Anaesthesia was then switched to Isoflurane and ventilation continued with O2 at 2 l/min. The right marginal ear vein was cannulated using a 23 G or 24 G catheter, and Lactated Ringer solution perfused at 0.5 ml/min. The rabbit was maintained at 3% Isoflurane during invasive surgery, dropping to 2% for maintenance anaesthesia. The left jugular vein was exposed, isolated and then cannulated with a PVC catheter (17 G) for the infusion of drugs and compounds.
The left groin area of the rabbit was shaved and a vertical incision was made approximately 5 cm in length along the thigh. The femoral vein and artery were exposed, isolated and then cannulated with a PVC catheter (17 G) for the infusion of drugs and compounds. Cannulation was repeated for the femoral artery, inserting the catheter to a depth of 10 cm to ensure that the catheter reached the abdominal aorta. This arterial catheter was linked to a Gould system to record blood pressure. Samples for blood gas analysis were also taken via the arterial catheter. Systolic and diastolic pressures were measured, and the mean arterial pressure calculated using the formula (diastolic×2+systolic)÷3. Heart rate was measured via the pulse oxymeter and Po-ne-mah data acquisition software system (Ponemah Physiology Platform, Gould Instrument Systems, Inc.).
A ventral midline incision was made into the abdominal cavity. The incision was about 5 cm in length just above the pubis. The fat and muscle was bluntly dissected away to reveal the hypogastric nerve which runs down the body cavity. It was essential to keep close to the side curve of the pubis wall in order to avoid damaging the femoral vein and artery which lie above the pubis. The sciatic and pelvic nerves lie deeper and were located after further dissection on the dorsal side of the rabbit. Once the sciatic nerve is identified, the pelvic nerve was easily located. The term pelvic nerve is loosely applied; anatomy books on the subject fail to identify the nerves in sufficient detail. However, stimulation of the nerve causes an increase in vaginal and clitoral blood flow in females and in intracavernosal pressure and cavernosal blood flow in males, and innervation of the pelvic region. […]

Chain of human dopamine D2 long receptor (P14416 whole entry): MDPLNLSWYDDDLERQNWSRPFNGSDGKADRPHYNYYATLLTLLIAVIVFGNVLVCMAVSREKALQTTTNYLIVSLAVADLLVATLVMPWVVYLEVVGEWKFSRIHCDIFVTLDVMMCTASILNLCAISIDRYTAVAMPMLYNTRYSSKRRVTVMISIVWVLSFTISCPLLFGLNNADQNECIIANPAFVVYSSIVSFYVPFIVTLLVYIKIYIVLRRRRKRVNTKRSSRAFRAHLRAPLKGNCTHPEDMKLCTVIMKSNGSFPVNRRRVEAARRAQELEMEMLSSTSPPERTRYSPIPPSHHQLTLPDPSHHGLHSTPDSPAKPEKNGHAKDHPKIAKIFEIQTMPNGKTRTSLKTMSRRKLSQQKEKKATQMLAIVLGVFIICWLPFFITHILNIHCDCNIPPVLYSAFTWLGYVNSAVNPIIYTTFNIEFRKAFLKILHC

SMILES: CCCN1CCO[C@H](c2cccc(O)c2)C1.Cl [Example 8, R-(−)-3-(4-Propylmorpholin-2-yl)phenol hydrochloride]
- EC50 [1]: 4.97 µM
- copulatory behaviour and copulatory effectiveness in male rats (conscious rats): beneficially enhances
- mount latency and intromission latency in sluggish males (model of HSDD) (conscious rats): reduces
- proceptive and receptive behaviours in female rats (conscious rats): beneficially enhances
- sexual desire in oestrogen primed ovarectomised animals (model of HSDD) (conscious rats): restores
- penile intracavernosal pressure and cavernosal blood flow in male rabbits (New Zealand rabbits): beneficially enhanced
- vaginal and clitoral blood flow in female rabbits (New Zealand rabbits): beneficially enhanced
